Experimental data taken from the supplement of paper PMC11579375.

Tests used:
Assay in all cases: area under the viability dose-response curve (AUC) (AUC (arbitrary units, max 500 = no viability loss)); higher = less sensitive (higher viability)
Conditions in all cases: exposure time: 120 h; concentration range: 0.1 nM - 10 µM, 6 doses
10F2 = tested on: 10F2 (fetal-II hepatoblastoma organoid with high liver markers)
Method: (§1)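 Patient-derived hepatoblastoma tumor organoids (about 50 organoids per well, 384-well plates, medium with 5% BME) were treated with the PMC pediatric cancer drug library. Each drug was tested in duplicate at 6 concentrations (0.1 nM to 10 µM, 10-fold steps).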

13E = tested on: 13E (embryonal-type hepatoblastoma organoid)
Method: as §1

8F1 = tested on: 8F1 (fetal-I hepatoblastoma organoid with intermediate liver markers)
Method: as §1

96F1 = tested on: 96F1 (fetal-I hepatoblastoma organoid with intermediate liver markers)
Method: as §1

13F2 = tested on: 13F2 (fetal-II hepatoblastoma organoid with high liver markers)
Method: as §1

22E = tested on: 22E (embryonal-type hepatoblastoma organoid)
Method: as §1

27F1 = tested on: 27F1 (fetal-I hepatoblastoma organoid with intermediate liver markers)
Method: as §1

17E = tested on: 17E (embryonal-type hepatoblastoma organoid)
Method: as §1

17F1 = tested on: 17F1 (fetal-I hepatoblastoma organoid with intermediate liver markers)
Method: as §1

3E = tested on: 3E (embryonal-type hepatoblastoma organoid)
Method: as §1

135F2 = tested on: 135F2 (fetal-II hepatoblastoma organoid with high liver markers)
Method: as §1

| Structure (SMILES) | area under the viability dose-response curve (10F2) | area under the viability dose-response curve (13E) | area under the viability dose-response curve (8F1) | area under the viability dose-response curve (96F1) | area under the viability dose-response curve (13F2) | area under the viability dose-response curve (22E) | area under the viability dose-response curve (27F1) | area under the viability dose-response curve (17E) | area under the viability dose-response curve (17F1) | area under the viability dose-response curve (3E) | area under the viability dose-response curve (135F2) |
| --- | --- | --- | --- | --- | --- | --- | --- | --- | --- | --- | --- |
| Oc1nc(-c2ccc(C(F)(F)F)cc2)nc2c1CSCC2 [XAV-939] | 456 | 486 | 490 | > 500 | 477 | 491 | > 500 | > 500 | > 500 | 496 | 486 |
| CN[C@@H](C)C(=O)N[C@H]1CN(C(=O)CC(C)C)CC[C@H]2CC[C@@H](C(=O)NC(c3ccccc3)c3ccccc3)N2C1=O [Xevinapant] | 445 | 484 | 496 | > 500 | 498 | 301 | > 500 | 454 | 489 | 351 | > 500 |
